Test results published in article PMC11617668, “Developing Allosteric Inhibitors of SARS‐CoV‐2 RNA‐Dependent RNA Polymerase” (Chemmedchem, 2024).
pEC50: −log10 of the molar value.

Assays:
[1] = target: SARS‐CoV‐2 RdRp complex (nsp12, nsp7, nsp8) (Severe acute respiratory syndrome coronavirus 2, UniProt P0DTD1); experiment: Fluorescence-based RdRp polymerase assay (SYBR Green I RNA extension); type: biochemical; conditions: for remaining activity at 10 µM: 50 min, read-out: residual activity (RA) of the SARS‐CoV‐2 RdRp complex; for residual activity (RA) of the SARS‐CoV‐2 RdRp complex: 10 μM screening, AUC with compound / AUC of non-inhibited reaction x 100
SARS‐CoV‐2 [2] = conditions: cited from earlier work
in vitro = conditions: human
Protocol: (§1) Briefly, two‐fold fold serial dilutions of compounds were added in triplicate in a 384‐well plate with 15,000 Calu‐3 cells in DMEM medium with 2 % FBS, 100 U of penicillin/ml and 100 μg of streptomycin/ml (all Merck). After 1 h incubation SARS‐CoV‐2 was added at multiplicity of infection 0.01. Following three days incubation at 37 °C in 5 % CO2 the cell viability was determined by addition of XTT solution (Sigma‐Aldrich) for 4 h and the absorbance was measured using EnVision plate reader (Perkin Elmer). Drug concentrations required to reduce viral cytopathic effect by 50 % (EC50) were calculated using nonlinear regression from plots of percentage cell viability versus log10 drug concentration using GraphPad Prism v.9.0.0 (GraphPad Software). Cytotoxicity was evaluated by incubating the same two‐fold serial dilutions of each compound with Calu‐3 cells as above but without virus. Following three days of incubation at 37 °C in 5 % CO2, the cell viability was determined by the addition of XTT solution as above. The compound concentrations resulting in a 50 % reduction of absorbance (CC50) were calculated from plots of the percentage of absorbance versus log10 drug concentration as above.

SARS‐CoV‐2 [3] = conditions: Severe acute respiratory syndrome coronavirus 2, Calu-3, 72 h
Protocol: as §1

Compound | remaining activity at 10 µM [1] | other results
O=C(Nc1ccccc1)Nc1ccc(-c2ccc(C(=O)[C@@H]3CCC[C@H]3C(=O)O)cc2)cc1 [Compound A922500, A922500, reference compound] | 100% | activity in cell assays against the virus (SARS‐CoV‐2 [2]): active
COC(=O)c1cc(NC(=O)Nc2cc(C(F)(F)F)cc(C(F)(F)F)c2)cc(C(=O)OC)c1 [Compound 11, Dimethyl 5‐(3‐(3,5‐Bis(trifluoromethyl)phenyl)ureido)isophthalate] | 65% | CC50 at 3 days (in vitro): 5.1 µM; pEC50 (SARS‐CoV‐2 [3]): < 5.30
COC(=O)c1cc(NC(=O)Nc2cccc(C(=O)O)c2)cc(C(=O)OC)c1 [Compound 13, 3‐(3‐(3,5‐Bis(methoxycarbonyl)phenyl)ureido)benzoic Acid] | 100% | –
COC(=O)c1cc(NC(=O)Nc2ccncc2)cc(C(=O)OC)c1 [Compound 14, Dimethyl 5‐(3‐(Pyridin‐4‐yl)ureido)isophthalate] | 100% | –
COC(=O)c1cc(NC(=O)Nc2cccc(C(F)(F)F)c2)cc(C(=O)OC)c1 [Compound 9, Dimethyl 5‐(3‐(3‐Trifluoromethylphenyl)ureido)isophthalate] | 70% | CC50 at 3 days (in vitro): 10.6 µM; pEC50 (SARS‐CoV‐2 [3]): < 5.00
CNC(=O)c1cc(Oc2ccc(NC(=O)Nc3ccc(Cl)c(C(F)(F)F)c3)c(F)c2)ccn1 [regorafenib, reference compound] | 76% | activity in cell assays against the virus (SARS‐CoV‐2 [2]): active
COc1cc(NC(=O)Nc2cccc([N+](=O)[O-])c2)cc(OC)c1 [Compound 38] | 100% | –
O=C(Nc1ccc([N+](=O)[O-])cc1)Nc1ccccc1Cc1ccccc1 [Compound 42] | 63% | –
O=C(Nc1cccc([N+](=O)[O-])c1)Nc1cc(C(F)(F)F)cc(C(F)(F)F)c1 [Compound 19, 1‐(3,5‐Bis(trifluoromethyl)phenyl)‐3‐(3‐Nitrophenyl)urea] | 62% | CC50 at 3 days (in vitro): 3.4 µM; pEC50 (SARS‐CoV‐2 [3]): < 5.52
O=C(Nc1ccc(C(F)(F)F)cc1)Nc1cccc([N+](=O)[O-])c1 [Compound 32] | 100% | –
O=C(Nc1cc(Cl)cc(Cl)c1)c1nc2ccc(C(F)(F)F)cc2[nH]1 [Compound 58, N‐(3,5‐Dichlorophenyl)‐6‐(Trifluoromethyl)‐1H‐Benzo[d]imidazole‐2‐Carboxamide] | 100% | –
COC(=O)c1cc(NC(=O)Nc2ccccc2)cc(C(=O)OC)c1 [Compound 23] | 100% | –
COC(=O)c1cc(NC(=O)Nc2cccc([N+](=O)[O-])c2)cc(C(=O)O)c1 [Compound 20, 3‐(Methoxycarbonyl)‐5‐(3‐(3‐Nitrophenyl)ureido)benzoic Acid] | 100% | residual activity (RA) of the SARS‐CoV‐2 RdRp complex [1]: complete loss of activity
O=C(Nc1cccc([N+](=O)[O-])c1)Nc1ccc2ccccc2c1 [Compound 30] | 73% | –
O=[N+]([O-])c1cccc(NC(=S)Nc2ccc(Cl)c(C(F)(F)F)c2)c1 [Compound 43] | 77% | –
CCNS(=O)(=O)c1ccc(NC(=O)Nc2cccc([N+](=O)[O-])c2)cc1 [Compound 35] | 100% | –
CNC(=O)c1cc(Oc2ccc(NC(=O)Nc3ccc(Cl)c(C(F)(F)F)c3)cc2)ccn1 [sorafenib] | – | cell infection (SARS‐CoV‐2 [2]): strongly inhibited cell infection
O=C(Nc1cccc([N+](=O)[O-])c1)Nc1cnccn1 [Compound 39] | 100% | –
3,4‐Dichloro‐N‐(6‐(Trifluoromethyl)‐1H‐Benzo[d]imidazol‐2‐yl)benzamide [Compound 57] | – | residual activity (RA) of the SARS‐CoV‐2 RdRp complex [1]: 100%
O=C(Cc1ccc([N+](=O)[O-])cc1)Nc1cc(Cl)cc(Cl)c1 [Compound 49, N‐(3,5‐Dichlorophenyl)‐2‐(4‐Nitrophenyl)acetamide] | 100% | –
COC(=O)c1cc(NC(=O)Nc2ccc(C#N)cc2)cc(C(=O)OC)c1 [Compound 7, Dimethyl 5‐(3‐(4‐Cyanophenyl)ureido)isophthalate] | 100% | –
O=C(Nc1cccc([N+](=O)[O-])c1)Nc1ccc(Cl)c(C(F)(F)F)c1 [Compound 29] | 58% | –
